ChEMBL document CHEMBL2169851, “Imidazopyridazinones as novel PDE7 inhibitors: SAR and in vivo studies in Parkinson's disease model” (Bioorg Med Chem Lett, 2012)
One block for each molecule: values may come before it. The source made the active and inactive calls. No cut-off for these calls is given here.

Tests used:
[1] = target: T1, High affinity 3',5'-cyclic-AMP phosphodiesterase 7A (Homo sapiens, UniProt Q13946); experiment: Inhibition of cloned human recombinant PDE7A assessed as [3H]cAMP hydrolysis by radiometric assay
T1 sequence (Q13946 whole entry): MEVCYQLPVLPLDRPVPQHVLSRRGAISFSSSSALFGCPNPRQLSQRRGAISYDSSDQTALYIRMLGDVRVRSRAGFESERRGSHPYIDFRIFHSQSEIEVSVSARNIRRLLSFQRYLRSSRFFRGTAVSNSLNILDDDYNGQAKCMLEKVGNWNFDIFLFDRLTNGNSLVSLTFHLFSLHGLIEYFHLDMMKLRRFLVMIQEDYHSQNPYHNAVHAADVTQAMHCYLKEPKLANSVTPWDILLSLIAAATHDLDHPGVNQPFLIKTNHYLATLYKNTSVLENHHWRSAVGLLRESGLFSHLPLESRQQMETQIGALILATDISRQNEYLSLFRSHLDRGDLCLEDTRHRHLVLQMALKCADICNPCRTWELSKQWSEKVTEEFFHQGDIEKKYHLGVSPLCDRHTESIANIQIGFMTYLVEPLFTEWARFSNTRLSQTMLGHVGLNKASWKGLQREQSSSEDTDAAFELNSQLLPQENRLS

[2] = target: cGMP-inhibited 3',5'-cyclic phosphodiesterase 3A (Homo sapiens) (UniProt Q14432); experiment: Inhibition of cloned human recombinant PDE3A assessed as [3H]cAMP hydrolysis at 10 uM by radiometric assay
Chain of cGMP-inhibited 3',5'-cyclic phosphodiesterase 3A (Homo sapiens) (Q14432 whole entry): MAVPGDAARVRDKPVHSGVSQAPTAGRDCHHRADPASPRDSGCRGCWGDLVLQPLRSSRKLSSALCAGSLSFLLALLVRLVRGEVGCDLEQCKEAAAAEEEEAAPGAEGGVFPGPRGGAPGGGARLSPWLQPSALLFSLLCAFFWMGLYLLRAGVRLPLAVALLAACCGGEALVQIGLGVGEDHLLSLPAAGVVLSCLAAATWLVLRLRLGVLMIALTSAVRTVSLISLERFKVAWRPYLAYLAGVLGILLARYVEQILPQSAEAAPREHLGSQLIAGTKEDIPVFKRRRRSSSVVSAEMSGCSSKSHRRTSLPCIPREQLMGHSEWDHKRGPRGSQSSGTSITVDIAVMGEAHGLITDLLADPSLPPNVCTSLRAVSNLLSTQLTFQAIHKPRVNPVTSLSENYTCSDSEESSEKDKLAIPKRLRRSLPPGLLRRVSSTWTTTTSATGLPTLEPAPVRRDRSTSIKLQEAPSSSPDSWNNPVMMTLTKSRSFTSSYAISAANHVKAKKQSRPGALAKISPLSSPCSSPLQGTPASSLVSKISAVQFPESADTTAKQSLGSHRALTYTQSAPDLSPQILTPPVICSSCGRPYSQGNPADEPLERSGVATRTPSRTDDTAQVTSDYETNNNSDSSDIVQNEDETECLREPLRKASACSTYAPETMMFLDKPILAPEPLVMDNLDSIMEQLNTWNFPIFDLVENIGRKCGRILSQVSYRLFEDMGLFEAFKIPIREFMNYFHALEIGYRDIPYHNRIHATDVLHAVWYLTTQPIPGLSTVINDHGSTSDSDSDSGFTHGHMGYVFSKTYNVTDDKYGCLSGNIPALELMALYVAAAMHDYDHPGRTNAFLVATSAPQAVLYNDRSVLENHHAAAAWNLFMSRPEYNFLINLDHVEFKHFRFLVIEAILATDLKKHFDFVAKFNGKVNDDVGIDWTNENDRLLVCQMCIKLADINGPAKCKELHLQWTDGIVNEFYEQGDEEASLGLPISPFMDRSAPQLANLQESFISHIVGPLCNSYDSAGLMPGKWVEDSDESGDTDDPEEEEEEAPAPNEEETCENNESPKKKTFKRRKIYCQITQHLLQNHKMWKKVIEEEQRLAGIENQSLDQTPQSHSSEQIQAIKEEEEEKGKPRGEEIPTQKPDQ

[3] = Metabolic stability in mouse liver microsomes assessed as compound remaining after 60 mins; assay type: ADME, Microsome; details: read-out: Stability
[4] = target: Dual 3',5'-cyclic-AMP and -GMP phosphodiesterase 11A (Homo sapiens) (UniProt Q9HCR9); experiment: Inhibition of cloned human recombinant PDE11A assessed as [3H]cAMP hydrolysis at 10 uM by radiometric assay
[5] = target: cAMP and cAMP-inhibited cGMP 3',5'-cyclic phosphodiesterase 10A (Homo sapiens) (UniProt Q9Y233); experiment: Inhibition of cloned human recombinant PDE10A assessed as [3H]cAMP hydrolysis at 10 uM by radiometric assay
Chain of cAMP and cAMP-inhibited cGMP 3',5'-cyclic phosphodiesterase 10A (Homo sapiens) (Q9Y233 whole entry): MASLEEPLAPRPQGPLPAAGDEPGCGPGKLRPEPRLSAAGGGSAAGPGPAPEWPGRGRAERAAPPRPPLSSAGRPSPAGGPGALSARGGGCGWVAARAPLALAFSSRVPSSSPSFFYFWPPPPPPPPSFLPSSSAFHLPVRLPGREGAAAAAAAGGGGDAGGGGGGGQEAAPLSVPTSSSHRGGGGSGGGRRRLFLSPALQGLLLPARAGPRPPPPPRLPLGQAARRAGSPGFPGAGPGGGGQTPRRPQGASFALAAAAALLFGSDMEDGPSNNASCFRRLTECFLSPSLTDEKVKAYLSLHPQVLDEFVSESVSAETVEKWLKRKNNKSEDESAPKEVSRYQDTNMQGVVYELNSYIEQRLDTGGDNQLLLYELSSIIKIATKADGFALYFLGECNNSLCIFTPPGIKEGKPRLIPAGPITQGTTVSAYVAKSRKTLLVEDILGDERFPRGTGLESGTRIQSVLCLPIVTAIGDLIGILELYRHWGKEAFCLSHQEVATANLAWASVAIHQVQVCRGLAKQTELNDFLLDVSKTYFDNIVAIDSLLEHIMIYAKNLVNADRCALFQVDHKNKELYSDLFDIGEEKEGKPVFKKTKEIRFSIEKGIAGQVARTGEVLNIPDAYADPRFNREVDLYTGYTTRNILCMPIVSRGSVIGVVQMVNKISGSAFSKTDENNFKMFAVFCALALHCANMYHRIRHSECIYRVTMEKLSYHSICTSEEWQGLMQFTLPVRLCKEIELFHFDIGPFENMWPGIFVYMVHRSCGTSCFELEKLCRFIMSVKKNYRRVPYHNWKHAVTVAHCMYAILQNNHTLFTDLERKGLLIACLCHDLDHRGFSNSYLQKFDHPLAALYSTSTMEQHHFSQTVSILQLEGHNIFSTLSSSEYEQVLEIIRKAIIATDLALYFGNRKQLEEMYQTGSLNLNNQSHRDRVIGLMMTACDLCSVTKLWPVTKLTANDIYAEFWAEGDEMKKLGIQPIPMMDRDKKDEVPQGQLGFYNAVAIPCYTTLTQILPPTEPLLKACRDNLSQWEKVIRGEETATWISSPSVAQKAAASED

[6] = Tmax in C57 mouse at 10 mg/kg, ip; assay type: ADME, organism-based; parameters: dose 10 mg/kg, route intraperitoneal; details: in vivo
[7] = Drug uptake in C57 mouse brain at 10 mg/kg, ip after 30 mins; assay type: ADME, organism-based; parameters: dose 10 mg/kg, route intraperitoneal; details: read-out: Drug uptake
[8] = target: cGMP-dependent 3',5'-cyclic phosphodiesterase (Homo sapiens) (UniProt O00408); experiment: Inhibition of cloned human recombinant PDE2A assessed as [3H]cAMP hydrolysis at 10 uM by radiometric assay
[9] = Cmax in C57 mouse at 10 mg/kg, ip; assay type: ADME, organism-based; parameters: dose 10 mg/kg, route intraperitoneal; details: in vivo
[10] = target: T2, 3',5'-cyclic-AMP phosphodiesterase 4D (Homo sapiens, UniProt Q08499); experiment: Inhibition of cloned human recombinant PDE4D assessed as [3H]cAMP hydrolysis at 10 uM by radiometric assay
T2 sequence (Q08499 whole entry): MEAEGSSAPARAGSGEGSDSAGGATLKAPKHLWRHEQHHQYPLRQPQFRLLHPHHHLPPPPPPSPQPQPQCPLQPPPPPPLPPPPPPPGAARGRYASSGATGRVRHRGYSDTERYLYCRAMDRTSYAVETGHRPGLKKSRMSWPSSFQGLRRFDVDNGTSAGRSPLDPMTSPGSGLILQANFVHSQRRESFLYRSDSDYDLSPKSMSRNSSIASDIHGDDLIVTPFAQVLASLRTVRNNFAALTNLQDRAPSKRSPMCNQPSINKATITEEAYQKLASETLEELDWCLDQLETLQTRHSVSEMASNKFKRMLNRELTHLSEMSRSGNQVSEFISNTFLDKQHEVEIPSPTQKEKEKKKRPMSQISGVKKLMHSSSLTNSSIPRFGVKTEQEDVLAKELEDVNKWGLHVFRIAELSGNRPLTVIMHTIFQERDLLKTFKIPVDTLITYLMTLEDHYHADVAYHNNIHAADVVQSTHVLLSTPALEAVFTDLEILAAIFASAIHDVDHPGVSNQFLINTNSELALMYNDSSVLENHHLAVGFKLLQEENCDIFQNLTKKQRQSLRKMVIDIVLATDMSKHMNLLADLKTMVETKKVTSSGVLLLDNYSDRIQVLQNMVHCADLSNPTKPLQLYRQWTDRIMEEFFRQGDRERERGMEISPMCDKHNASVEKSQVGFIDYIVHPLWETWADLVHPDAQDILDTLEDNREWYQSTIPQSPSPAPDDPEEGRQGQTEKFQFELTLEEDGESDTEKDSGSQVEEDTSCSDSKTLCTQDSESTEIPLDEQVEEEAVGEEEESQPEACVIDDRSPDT

[11] = target: 3',5'-cyclic-AMP phosphodiesterase 7B (Homo sapiens, UniProt Q9NP56); experiment: Inhibition of cloned human recombinant PDE7B assessed as [3H]cAMP hydrolysis by radiometric assay
Chain of 3',5'-cyclic-AMP phosphodiesterase 7B (Q9NP56 whole entry): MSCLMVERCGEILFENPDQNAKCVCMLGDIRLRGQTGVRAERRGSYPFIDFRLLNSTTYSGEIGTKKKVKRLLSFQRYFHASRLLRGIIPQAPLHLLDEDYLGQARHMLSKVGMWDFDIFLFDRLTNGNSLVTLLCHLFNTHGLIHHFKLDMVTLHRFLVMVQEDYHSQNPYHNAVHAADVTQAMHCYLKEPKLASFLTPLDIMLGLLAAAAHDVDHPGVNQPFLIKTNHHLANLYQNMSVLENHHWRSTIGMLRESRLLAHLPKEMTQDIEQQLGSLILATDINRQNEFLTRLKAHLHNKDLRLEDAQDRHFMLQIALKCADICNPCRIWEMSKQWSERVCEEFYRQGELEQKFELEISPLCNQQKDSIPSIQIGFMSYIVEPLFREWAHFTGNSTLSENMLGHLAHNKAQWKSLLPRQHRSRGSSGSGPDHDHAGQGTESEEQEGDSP

[12] = target: T1, High affinity 3',5'-cyclic-AMP phosphodiesterase 7A; experiment: Inhibition of cloned human recombinant PDE7A assessed as [3H]cAMP hydrolysis at 1 uM by radiometric assay
[13] = target: High affinity cGMP-specific 3',5'-cyclic phosphodiesterase 9A (Homo sapiens) (UniProt O76083); experiment: Inhibition of cloned human recombinant PDE9A2 assessed as [3H]cAMP hydrolysis at 10 uM by radiometric assay
Chain of High affinity cGMP-specific 3',5'-cyclic phosphodiesterase 9A (Homo sapiens) (O76083 whole entry): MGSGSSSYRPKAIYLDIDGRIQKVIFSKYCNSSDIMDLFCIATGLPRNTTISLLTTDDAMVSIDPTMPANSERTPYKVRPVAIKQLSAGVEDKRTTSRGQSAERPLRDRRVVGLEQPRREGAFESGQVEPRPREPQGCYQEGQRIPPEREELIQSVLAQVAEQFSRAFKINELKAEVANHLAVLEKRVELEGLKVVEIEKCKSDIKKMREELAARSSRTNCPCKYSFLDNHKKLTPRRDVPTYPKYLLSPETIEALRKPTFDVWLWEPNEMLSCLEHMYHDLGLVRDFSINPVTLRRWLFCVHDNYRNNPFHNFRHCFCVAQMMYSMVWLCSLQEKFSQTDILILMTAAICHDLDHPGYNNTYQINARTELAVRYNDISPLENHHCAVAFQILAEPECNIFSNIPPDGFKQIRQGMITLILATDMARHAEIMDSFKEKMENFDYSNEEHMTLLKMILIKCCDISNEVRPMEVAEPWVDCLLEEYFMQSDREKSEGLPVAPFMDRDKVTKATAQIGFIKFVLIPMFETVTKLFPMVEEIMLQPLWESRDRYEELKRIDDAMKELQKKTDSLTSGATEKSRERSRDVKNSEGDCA

[14] = target: cGMP-specific 3',5'-cyclic phosphodiesterase (Homo sapiens) (UniProt O76074); experiment: Inhibition of cloned human recombinant PDE5A assessed as [3H]cAMP hydrolysis at 10 uM by radiometric assay
[15] = Metabolic stability in human liver microsomes assessed as compound remaining after 60 mins; assay type: ADME, Microsome; details: read-out: Stability
[16] = Plasma concentration in C57 mouse at 10 mg/kg, ip after 30 mins; assay type: ADME, organism-based; parameters: dose 10 mg/kg, route intraperitoneal
[17] = Metabolic stability in rat liver microsomes assessed as compound remaining after 60 mins; assay type: ADME, Microsome; details: read-out: Stability
[18] = Ratio of drug level in brain to plasma in C57 mouse at 10 mg/kg, ip after 30 mins; assay type: ADME, organism-based; parameters: dose 10 mg/kg, route intraperitoneal; details: read-out: BPR
[19] = target: Dual specificity calcium/calmodulin-dependent 3',5'-cyclic nucleotide phosphodiesterase 1A (Homo sapiens) (UniProt P54750); experiment: Inhibition of cloned human recombinant PDE1A assessed as [3H]cAMP hydrolysis at 10 uM by radiometric assay
Chain of Dual specificity calcium/calmodulin-dependent 3',5'-cyclic nucleotide phosphodiesterase 1A (Homo sapiens) (P54750 whole entry): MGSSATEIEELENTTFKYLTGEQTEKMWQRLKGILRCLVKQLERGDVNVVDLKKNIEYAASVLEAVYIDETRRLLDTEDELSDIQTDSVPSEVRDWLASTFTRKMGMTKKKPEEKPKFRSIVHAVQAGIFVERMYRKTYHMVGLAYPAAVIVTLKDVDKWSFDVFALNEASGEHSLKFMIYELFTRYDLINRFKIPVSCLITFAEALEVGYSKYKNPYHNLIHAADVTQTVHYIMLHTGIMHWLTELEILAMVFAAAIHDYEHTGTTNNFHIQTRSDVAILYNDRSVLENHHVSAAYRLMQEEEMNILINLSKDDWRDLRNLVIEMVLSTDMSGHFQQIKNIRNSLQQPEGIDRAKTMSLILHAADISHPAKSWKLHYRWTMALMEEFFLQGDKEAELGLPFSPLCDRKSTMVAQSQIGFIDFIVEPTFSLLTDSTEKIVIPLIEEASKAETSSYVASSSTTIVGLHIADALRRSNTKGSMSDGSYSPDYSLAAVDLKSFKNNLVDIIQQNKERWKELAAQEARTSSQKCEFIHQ

[20] = target: High affinity cAMP-specific and IBMX-insensitive 3',5'-cyclic phosphodiesterase 8A (Homo sapiens) (UniProt O60658); experiment: Inhibition of cloned human recombinant PDE8A1 assessed as [3H]cAMP hydrolysis at 10 uM by radiometric assay
[21] = AUC in C57 mouse at 10 mg/kg, ip; assay type: ADME, organism-based; parameters: dose 10 mg/kg, route intraperitoneal; details: plasma
Mus musculus [22] = experiment: Antiparkinsonian activity in C57BL/6 mouse assessed as decrease in MPTP-induced vertical rearing behavior impairment at 15 mg/kg, sc administered 30 mins on day 7 post MPTP challenge; assay type: functional, organism-based; parameters: dose 15 mg/kg
Mus musculus [23] = experiment: Neurotoxicity in sc dosed C57BL/6 mouse assessed as induction of catalepsy measured at 0.5 to 1 hr; assay type: toxicity, organism-based; details: in vivo
Mus musculus [24] = experiment: Antiparkinsonian activity in C57BL/6 mouse assessed as decrease in MPTP-induced vertical rearing behavior impairment at 12.5 mg/kg, ip administered 30 mins on day 7 post MPTP challenge; assay type: functional, organism-based; parameters: dose 12.5 mg/kg
Homo sapiens [25] = organism: Homo sapiens; experiment: Selectivity ratio of IC50 for cloned human recombinant PDE4D to IC50 for cloned human recombinant PDE7B
Homo sapiens [26] = organism: Homo sapiens; experiment: Selectivity ratio of IC50 for cloned human recombinant PDE4D to IC50 for cloned human recombinant PDE7A
[27] = target: T2, 3',5'-cyclic-AMP phosphodiesterase 4D; experiment: Inhibition of cloned human recombinant PDE4D assessed as [3H]cAMP hydrolysis by radiometric assay

- inhibition [2]: 2%
- remaining at 1 h [3]: 44%
- inhibition [4]: 44%
- inhibition [5]: 40%
- Tmax [6]: 4 h
- concentration at 0.5 h [7]: 46 ng/g
- inhibition [8]: 40%
- IC50 [1]: 27 nM
- Cmax [9]: 902 ng/mL
- inhibition [10]: 81%
- IC50 [11]: 11 nM
- inhibition [12]: 96%
- inhibition [13]: 9%
- inhibition [14]: 32%
- remaining at 1 h [15]: 100%
- concentration at 0.5 h [16]: 451 ng/mL
- remaining at 1 h [17]: 100%
- Kp at 0.5 h [18]: 0.1
- inhibition [19]: 16%
- inhibition [20]: 6%
- AUC [21]: 2300 ng·h/mL
SMILES: COc1cc(N2CCC(N)CC2)ccc1-c1nc2c(C)nn(C3CCCCC3)c(=O)c2[nH]1

- IC50 [1]: 93 nM
SMILES: COc1cc(CCC(N)=O)ccc1-c1nc2c(C)nn(C3CCCCC3)c(=O)c2[nH]1

- IC50 [1]: 104 nM
SMILES: COc1cc(N2CCNCC2)ccc1-c1nc2c(C)nn(C3CCCCC3)c(=O)c2[nH]1

- IC50 [1]: 80 nM
SMILES: COc1cc(N2CC[C@H](N)C2)ccc1-c1nc2c(C)nn(C3CCCCC3)c(=O)c2[nH]1

- IC50 [1]: 73 nM
SMILES: COc1cc(N2CC(N)C2)ccc1-c1nc2c(C)nn(C3CCCCC3)c(=O)c2[nH]1

- IC50 [1]: 71 nM
SMILES: COc1cc(N2CCC(O)C2)ccc1-c1nc2c(C)nn(C3CCCCC3)c(=O)c2[nH]1 (stereo unspecified)

- IC50 [1]: 18 nM
SMILES: COc1cc(N2CCNC(=O)C2)ccc1-c1nc2c(C)nn(C3CCCCC3)c(=O)c2[nH]1

- inhibition [2]: 4%
- remaining at 1 h [3]: 37%
- inhibition [4]: 24%
- inhibition [5]: 2%
- Tmax [6]: 0.25 h
- concentration at 0.5 h [7]: 39 ng/g
- Ratio IC50 (Homo sapiens [25]): > 150
- inhibition [8]: 28%
- IC50 [1]: 12 nM
- Cmax [9]: 570 ng/mL
- inhibition [10]: 90%
- IC50 [11]: 19 nM
- Ratio IC50 (Homo sapiens [26]): > 200
- inhibition [13]: 12%
- inhibition [14]: 3%
- remaining at 1 h [15]: 90%
- concentration at 0.5 h [16]: 446 ng/mL
- remaining at 1 h [17]: 40%
- Kp at 0.5 h [18]: 0.09
- inhibition [19]: 33%
- inhibition [20]: 19%
- IC50 [27]: 2900 nM
- AUC [21]: 1370 ng·h/mL
SMILES: COc1cc(N2CCCNCC2)ccc1-c1nc2c(C)nn(C3CCCCC3)c(=O)c2[nH]1

More lines, now with the values behind:

SMILES: COc1cc(/C=C/C(N)=O)ccc1-c1nc2c(C)nn(C3CCCCC3)c(=O)c2[nH]1
- IC50 [1]: 89 nM

SMILES: CNC(=O)Nc1ccc(-c2nc3c(C)nn(C4CCCCC4)c(=O)c3[nH]2)c(OC)c1
- IC50 [1]: 24 nM

SMILES: COc1cc(-c2n[nH]c(=O)o2)ccc1-c1nc2c(C)nn(C3CCCCC3)c(=O)c2[nH]1
- IC50 [1]: 68 nM

SMILES: N[C@@H](Cc1ccc(O)c(O)c1)C(=O)O
- Activity (Mus musculus [22]): Active

SMILES: O=C(CCCN1CCC(O)(c2ccc(Cl)cc2)CC1)c1ccc(F)cc1 [HALOPERIDOL]
- Activity (Mus musculus [23]): Dose-dependent effect

SMILES: NC(CO)C(=O)NNCc1ccc(O)c(O)c1O (stereo unspecified)
- Activity (Mus musculus [24]): Active
